Common to all, as to assay type: cell-based
The test system of assay [1] is MIA-Pa-Ca-2. Put plainly: Cell viability assay, pancreatic carcinoma cell line MIA-Pa-Ca-2. The note with it: Homo sapiens, MIA PaCa-2; MIA-Pa-Ca-2 pancreatic carcinoma cell line. How it is done:
(§1) Antitumor activity of the compounds and doxorubicin as a positive control was assessed by using the CellTiter-Blue Cell Viability Assay (Promega, #G8082) or CellTiter-Glow® Luminescent Cell Viability assay (Promega # G7572) according to the manufacturer's instructions. The compounds were tested at 5 or 6 concentrations in half-log increments (highest concentration 30 μM-100 μM) in duplicate or triplicate well conditions.
(§2) Tumor cells were grown at 37° C. in a humidified atmosphere with 5% CO2 in RPMI 1640 or DMEM medium, supplemented with 10% (v/v) fetal calf serum and 50 μg/ml gentamicin for up to 20 passages, and were passaged once or twice weekly. Cells were harvested using TrypLE or PBS buffer containing 1 mM EDTA, and the percentage of viable cells is determined using a CASY Model TT cell counter (OMNI Life Science). Cells were harvested from exponential phase cultures, counted and plated in 96 well flat-bottom microtiter plates at a cell density depending on the cell line's growth rate (4,000-20,000 cells/well depending on the cell line's growth rate, up to 60,000 for hematological cancer cell lines) in RPMI 1640 or DMEM medium supplemented with 10% (v/v) fetal calf serum and 50 μg/ml gentamicin (140 μl/well). Cultures were incubated at 37° C. and 5% CO2 in a humidified atmosphere. After 24 h, 10 μl of test compounds or control medium are added, and left on the cells for another 72 h. Compounds were serially diluted in DMSO, transferred in cell culture medium, and added to the assay plates. The DMSO concentration was kept constant at <0.3% v/v across the assay plate. Viability of cells was quantified by the CellTiter-Blue® cell viability assay (Promega G8081) or CellTiter-Glow® Luminescent Cell Viability assay (Promega # G7572). Fluorescence (FU) was measured by using the EnSpire® multimode plate reader (Perkin Elmer) (excitation λ=570 nm, emission λ=600 nm) or luminescent detection of ATP in viable cells was used as parameter for proliferation. Luminescence was measured with the microplate luminometer (Promega or Perkin Elmer).
(§3) Sigmoidal concentration-response curves were fitted to the data points (test-versus-control, T/C values) obtained for each tumor model using 4 parameter non-linear curve fit (Charles River DRS Datawarehouse Software) or with GraphPad prism 5.02 software. IC50 values are reported as absolute IC50 values, being the concentration of test compound at the intersection of the concentration-response curves with T/C=50%

Assay [2] relates to pancreatic carcinoma cell. The experiment in a line: Cell viability assay, pancreatic carcinoma cell lines (summary). The note with it: summary of Table 12; read-out: IC50s, pancreatic carcinoma cell growth. How it is done: as §1, §2, §3
Assay [3] concerns Panc-1. The experiment in a line: Cell viability assay, pancreatic carcinoma cell line Panc-1. The following applies: Homo sapiens; Panc-1 pancreatic carcinoma cell line. How it is done: as §1, §2, §3
Assay [4] has as its system MeWo. Put plainly: Cell viability assay, melanoma cell line MeWo. The note with it: Homo sapiens. The method, then: as §1
as §2, with “Elmer). […]” for “Elmer).”

Assay [5] deals with U-251. Put plainly: Cell viability assay, brain carcinoma cell line U-251. The note with it: Homo sapiens; U-251 brain carcinoma cell line, 72 h, absolute IC50. The method, then:
as §1, §2, §3

Assay [6] has as its system melanoma cell lines. The experiment in a line: Cell viability assay, melanoma cell lines (summary). The note with it: summary of Tables 14A and 14B; read-out: IC50s, melanoma cell lines growth. The method, then: as §1, §2, §3
Assay [7] deals with DMS114. Put plainly: Cell viability assay, small cell lung carcinoma cell line DMS114. The following applies: Homo sapiens, DMS-114. The method, then:
as §1
as §2, with “Elmer). […]” for “Elmer).”

Assay [8] relates to SH-SY-5Y. The experiment in a line: Cell viability assay, brain carcinoma cell line SH-SY-5Y. The note with it: Homo sapiens, SH-SY5Y; SH-SY-5Y brain carcinoma cell line, 72 h, absolute IC50. How it is done: as §1
as §2, with “Elmer). […]” for “Elmer).”

Assay [9] relates to lung carcinoma cell. Put plainly: Cell viability assay, lung carcinoma cell lines (summary). The note with it: summary of Tables 7A-E; read-out: IC50s, lung carcinoma cell growth. The method, then:
as §1, §2, §3

Assay [10] has as its system NCI-H441. The experiment in a line: Cell viability assay, mucoepidermoid pulmonary and adenocarcinoma, NCI-H441. The note with it: Homo sapiens. How it is done:
as §1
as §2, with “Elmer). […]” for “Elmer).”

Assay [11] concerns NCI-H292. Put plainly: Cell viability assay, mucoepidermoid pulmonary and adenocarcinoma, NCI-H292. The following applies: Homo sapiens. How it is done:
as §1
as §2, with “Elmer). […]” for “Elmer).”

The subject of assay [12] is U-87MG. Put plainly: Cell viability assay, brain carcinoma cell line U-87MG. The note with it: Homo sapiens; U-87MG brain carcinoma cell line, 72 h, absolute IC50. The method, then: as §1, §2, §3
The subject of assay [13] is LN-229. Put plainly: Cell viability assay, brain carcinoma cell line LN-229. The following applies: Homo sapiens; LN-229 brain carcinoma cell line, 72 h, absolute IC50. The method, then: as §1, §2, §3
Assay [14] has as its system NCI-H1437. Put plainly: Cell viability assay, non-small lung carcinoma cell line NCI-H1437. The note with it: Homo sapiens. The method, then: as §1, §2, §3
In assay [15] the test system is CALU-6. Put plainly: Cell viability assay, non-small cell lung carcinoma cell line CALU-6. The following applies: Homo sapiens; CALU-6 non-small cell lung carcinoma cell line. The method, then:
as §1, §2, §3

Assay [16] concerns HL-60. Put plainly: Cell viability assay, acute promyelocytic leukemia cell line HL-60. The following applies: Homo sapiens; HL-60 acute promyelocytic leukemia cell line. The method, then:
as §1, §2, §3

Assay [17] deals with breast cancer cell. The experiment in a line: Cell viability assay, breast cancer cell lines (summary). The following applies: summary of Tables 4A and 4B; read-out: IC50s, breast cancer cell growth. How it is done:
as §1, §2, §3

Assay [18] deals with brain cancer cell. Put plainly: Cell viability assay, brain cancer cell lines (summary). The following applies: summary of Tables 3A-D; read-out: IC50s, brain cancer cell growth. The method, then: as §1, §2, §3
Assay [19] deals with MDA-MB-468. Put plainly: Cell viability assay, breast carcinoma cell line MDA-MB-468. The note with it: Homo sapiens; MDA-MB-468 breast carcinoma cell line. How it is done:
as §1
as §2, with “Elmer). […]” for “Elmer).”

Assay [20] relates to HCT-116. Put plainly: Cell viability assay, colon cancer cell line HCT-116. The method, then: as §1
Tumor cells were grown at 37° C. in a humidified atmosphere with 5% CO2 in RPMI 1640 or DMEM medium, supplemented with 10% (v/v) fetal calf serum and 50 μg/ml gentamicin for up to 20 passages, and were passaged once or twice weekly. Cells were harvested using TrypLE or PBS buffer containing 1 mM EDTA, and the percentage of viable cells is determined using a CASY Model TT cell counter (OMNI Life Science). Cells were harvested from exponential phase cultures, counted and plated in 96 well flat-bottom microtiter plates at a cell density depending on the cell line's growth rate (4,000-20,000 cells/well depending on the cell line's growth rate, up to 60,000 for hematological cancer cell lines) in RPMI 1640 or DMEM medium supplemented with 10% (v/v) fetal calf serum and 50 μg/ml gentamicin (140 μl/well). […] Viability of cells was quantified by the CellTiter-Blue® cell viability assay (Promega G8081) or CellTiter-Glow® Luminescent Cell Viability assay (Promega # G7572). […]

In assay [21] the test system is A375. The experiment in a line: Cell viability assay, melanoma cell line A375. The following applies: Homo sapiens, A-375. The method, then:
as §1, §2, §3

Assay [22] has as its system NCI-H1299. The experiment in a line: Cell viability assay, non-small cell lung carcinoma cell line NCI-H1299. The note with it: Homo sapiens. How it is done: as §1, §2, §3

Structures can show the parent of a compound that is named as a salt.

Regarding `COc1c(O)ccc2c(=O)cc(-c3ccc(CCCCN(C)C)cc3)oc12` [SND141, 2-(4-(4-(dimethylamino)butyl)phenyl)-7-hydroxy-8-methoxy-4H-chromen-4-one], the results for the IC50 in assay [1], in assay [2] and in assay [3] were 2.3 µM, under 10 µM and 3.91 µM, respectively.
On to `NCCCNCCCCNCCCCc1ccc(-c2cc(=O)c3ccc4c(c3o2)OCO4)cc1` [SND392], for which the IC50 in assay [4] is 9.8 µM; in assay [5] it was 8.4 µM; in assay [6] it was under 10 µM; in assay [7], 5.4 µM; in assay [8], 3.7 µM; in assay [9] it was under 20 µM. For the same compound, the IC50 was 5.4 µM in assay [10]; 3.8 µM in [11]; 7.6 µM in [12]; 11 µM in assay [13]; 3.1 µM in assay [14]; 7 µM in [15]. The compound also gave an IC50 in [16] of 5.9 µM.
Consider `CCN(CCCCc1ccc(-c2cc(=O)c3ccc4c(c3o2)OCO4)cc1)Cc1ccccc1OC` [SND394], for which the IC50 in [5] was 7.6 µM; in assay [7], 3.1 µM; in assay [9] it was under 20 µM; in assay [10], 3.2 µM; in assay [11], 1.9 µM; in assay [12], 7.6 µM. The IC50 is 2.9 µM in assay [13]; 2.1 µM in assay [14]; 8.9 µM in assay [15]; under 10 µM in assay [17]; under 10 µM in assay [18]; 3.8 µM in [19]. This compound came in with an IC50 in [16] of 2.8 µM.
As to `O=c1cc(-c2ccc(CCCN3CCCCC3)cc2)oc2c(O)c(O)ccc12` [SND172], the IC50 was 11.4 µM in [20] (HCT-116 colon cancer cell line) and under 20 µM in assay [20] (Homo sapiens, HCT-116, HCT-116 colon cancer cell line).
`CN(CCCc1ccc(-c2cc(=O)c3ccc(O)c(O)c3o2)cc1)CCN1CCN(C)CC1` [SND173, 7,8-Dihydroxy-2-(4-(3-(methyl(2-(4-methylpiperazin-1-yl)ethyl)amino)propyl)phenyl)-4H-chromen-4-one trihydrochloride]: the IC50 was under 10 µM in assay [6] and 10 µM in assay [21].
Turning to `COc1c(O)ccc2c(=O)cc(-c3ccc(CN4CCCCC4)cc3)oc12` [SND168], the figures for the IC50 in assay [9] and in [22] were under 20 µM and 3.7 µM, respectively.
